Two molecules from patent US12617779B2, “Self degradation-type CDK9 inhibitor prodrug and liposome encapsulating same” (Sumitomo Pharma Co., Ltd., priority 2021, dated 2026) can be followed below.

The series in a line: Liposome encapsulation test, remote loading method (Experimental Example 4).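 On Encapsulation efficiency: encapsulated compound as percent of compound amount introduced.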 Type of series: physicochemical. Here is the method: For Example 1, Example 2, Example 3, Example 4, Example 5, Example 6, Example 7, Example 8, Example 9, Example 10, Example 11, Example 12, Example 13, Example 14, Example 15, Example 16, Example 17 and Alvocidib, an encapsulation test in liposomes was performed using a remote loading method.
<Liposome Encapsulation Test of Example 1, Example 2, Example 5, Example 6, Example 9, Example 10, Example 11, Example 12, Example 13, Example 14, Example 15, and Example 16>
Hydrogenated soybean phosphatidylcholine (COATSOME NC-21E, manufactured by NOF CORPORATION, 7.77 g), cholesterol (manufactured by Sigma, 2.78 g) and distearoylphosphatidylethanolamine-methoxypolyethylene glycol 2000 (SUNBRIGHT DSPE-020CN, manufactured by NOF CORPORATION, 2.47 g) were dissolved in tert-butyl alcohol (720 mL) warmed to 65° C. The solution was placed in an eggplant flask and frozen in a dry ice-acetone bath, and then the tert-butyl alcohol was removed by evaporation under reduced pressure to give a lipid mixture.
To the above lipid mixture was added a 250 mM ammonium sulfate solution (240 mL), and the mixture was warmed to 65° C., and dispersed by a homogenizer (ULTRA-TURRAX, manufactured by IKA) to give a crude liposome dispersion. Then, the crude liposome dispersion was dispersed by a high pressure homogenizer (Nano-Mizer NM2, manufactured by YOSHIDA KIKAI CO., LTD.) at a pressure of 100 MPa to give liposomes with an average particle size (Z-average) of about 80 nm. The liposome outer solution was replaced with 10 mM L-histidine/10% sucrose solution (pH 6.5) using a dialysis cassette (Slide-A-Lyzer G2 Dialysis Cassettes 20K MWCO, manufactured by Thermo Scientific) to give an empty liposome solution. The solution was filtered through a 0.22 μm membrane filter, and a 10 mM L-histidine/10% sucrose solution (pH 6.5) was added thereto to adjust the total lipid concentration to 50 mM (50 μmol/mL). The lipid concentration was determined by quantitatively analyzing cholesterol using HPLC and calculating the total lipid concentration from the lipid mixing ratio. The amount for the above adjustment was increased or decreased as appropriate.
The compound (10 mg) was weighed, and the empty liposome solution (1 mL) with a total lipid concentration of 50 mM was added thereto. The solution was adjusted to pH 5 to 6 with 1 mol/L hydrochloric acid or 1 mol/L aqueous sodium hydroxide solution as necessary, warmed in a 65° C. water bath for 2 to 3 minutes, and ice-cooled. The mixture was centrifuged at 15,000×g for 5 minutes to precipitate and remove insoluble substances.
The liposome solution (100 μL) after removing insoluble substances was taken on an ultrafiltration filter (Amicon Ultra, 100K, 0.5 mL, manufactured by Merck) and centrifuged at 4° C., 15,000×g for 10 minutes. The compound concentrations in the liposome solution after removing insoluble substances and in the filtrate after ultrafiltration were determined by HPLC, and the encapsulation rate, encapsulation efficiency, and encapsulated compound content per 50 μmol of lipid were calculated by the following formula.
The measurement conditions for HPLC are as follows.
An empty liposome solution with a total lipid concentration of 75 mM was prepared by the same procedure as for the above example compound group. Each compound was weighed, and the empty liposome solution with a total lipid concentration of 75 mM was added thereto such that the compound concentration became 15 mg/mL. The solution was adjusted to pH 5 to 6 with 1 mol/L hydrochloric acid or 1 mol/L aqueous sodium hydroxide solution, warmed in a 65° C. water bath for 3 minutes, and ice-cooled. Hereafter, the encapsulation rate and encapsulation efficiency were calculated by the same procedure as for the above example compound group. The encapsulated compound content per 50 μmol of lipid was calculated by the following formula.
[formula] <Liposome Encapsulation Test of Example 7, Example 8 and Example 17> […]

Where [1] appears, read: Compound concentration when encapsulated 5 mg/mL.
Where [2] appears, read: Compound concentration when encapsulated 10 mg/mL.

Take `CN1CC[C@H](c2c(O)cc(O)c3c(=O)cc(-c4ccccc4Cl)oc23)[C@H](O)C1.Cl` [Alvocidib hydrochloride, 2-(2-chlorophenyl)-5,7-dihydroxy-8-[(3S,4R)-3-hydroxy-1-methylpiperidin-4-yl]-4H-chromen-4-one hydrochloride, reference compound]: under setting [1], the “Encapsulated compound content per 50 μmol of lipid” value turned out to be 4.8 mg, the Encapsulation efficiency was 96.2% and the Encapsulation rate stood at 99.5%. For the same molecule, the Encapsulation rate result under setting [2] was “not encapsulated due to gelation”. Besides, for the setting “concentration 5 mg/mL”, the “Encapsulation in liposomes” value is reported as “could be encapsulated in liposomes”. In addition, the “Encapsulation in liposomes” value (concentration of 10 mg/mL) was “could not be encapsulated in liposomes”.
For the molecule `CN1CC[C@H](c2c(OC(=O)N(C)C[C@@H]3COCCN3)cc(O)c3c(=O)cc(-c4ccccc4Cl)oc23)[C@H](O)C1` [Example 17, 2-(2-chlorophenyl)-5-hydroxy-8-[(3S,4R)-3-hydroxy-1-methylpiperidin-4-yl]-4-oxo-4H-1-benzopyran-7-yl methyl{[(3R)-morpholin-3-yl]methyl}carbamate], under setting [2], the “Encapsulated compound content per 50 μmol of lipid” value turned out to be 2.4 mg, the Encapsulation efficiency is listed as 23.8% and the Encapsulation rate was 26.5%.
